The values below come from patent publication US20080234311A1, “IMMUNOASSAY FOR DETECTION AND QUANTIFICATION OF AMYLOID-beta PEPTIDES” (priority 2006, published 2008).

The subject of this assay is Aβ1-40 production in rat cortical neurons. Put plainly: Aβ1-40 level in conditioned medium of rat cortical neurons (rodent Aβ immunoassay). It counts as cell-based. The settings on record: rat cortical neurons of 7 days of culture, treated at various concentrations for 7 days (FIG. 2B); read-out: IC50 for reduction of Aβ1-40 level in conditioned medium. The protocol: Mouse monoclonal antibody specific for the N-terminal of mouse/rat Aβ was immobilized by incubation of 96-well polystyrene plate with 50 ul of the antibody at 4 ug/ml in each well in a coating buffer (0.1 M NaHCO3 pH 8.2) overnight at 4° C. The plates were washed thereafter each step for 3 times with 200 μl/well PBST (PBS with 0.5% Tween-20). The wells were then sequentially incubated with 50 μl/well test samples containing mouse/rat or human Aβ1-40 or Aβ1-42 overnight at 4° C. Primary rabbit antibodies specific for either Aβ1-40 or Aβ1-42 (BioSource International Inc., Camarillo, Calif.) were added to each well at 50 ul/well for a final concentration of 400 ng/ml, and incubated at room temperature. […] The color signal was measured at […] in a spectrophotometer. […] This indicates the specificity of the assay for rodent Aβ The assay detected both mouse/rat Aβ1-40 and Aβ1-42 at levels less than 15 ng/ml (FIG. 1C).
The amount released can be reduced by a γ-secretase inhibitor. […] The cortical neurons of 7 days of culture were treated with gamma-secretase inhibitor L-685,458 at various concentrations for 7 days and the Aβ1-40 level was measured in the conditioned medium. […]
The effect of nicotinic receptor ligands on Aβ production was analyzed by measurement of the Aβ1-40 level in the conditioned media of rat cortical cultures treated with α7 nAChR selective ligands for 7 days. […]

A word on the IC50: it is the point on the concentration scale where inhibition reaches its midpoint.

Take `CC(C)C[C@H](NC(=O)[C@H](Cc1ccccc1)C[C@@H](O)[C@H](Cc1ccccc1)NC(=O)OC(C)(C)C)C(=O)N[C@@H](Cc1ccccc1)C(N)=O` [L-685,458]: the half-inhibitory concentration (IC50) came out at 431 nM.
